# Source: patent US8470765B2, “Polypeptides and antibacterial or antiseptic use of same” (AnGes MG, Inc., priority 2009, dated 2013)
# Read-outs that look alike come from different tables or passages of the source. No end group written: not given here.
# Tests used:
# [1] = test system: Staphylococcus aureus (S. aureus ATCC29213); test: ATP assay (BacTiter-Glo) viability, Table 2; assay type: cell-based; conditions: ATCC29213, 3 h, read-out: Viability (%) S. aureus
# Description: (§1) The antibacterial activity of the polypeptides was measured using the ATP assay method.
# (§2) Using BacTiter-Glo Microbial Cell Viability Assay kit available from PROMEGA, the antibacterial activity of the peptides was evaluated from the viability of bacteria. That is, ATP amount in viable bacteria in cases where the concentration of the peptides was 10 μg/ml, was measured using a microtiter plate or test tubes.
# (§3) With respect to the strains, Staphylococcus aureus (S. aureus ATCC29213) as Gram-positive bacteria, or, alternatively, Pseudomonas aeruginosa (P. aeruginosa ATCC27853) as Gram-negative bacteria, was used. The bacteria were cultured in media for 3 to 4 hours, and thereafter absorbances at A600 were measured. Bacterial suspensions were diluted with Mueller-Hinton broth (MHB) according to McFarland #0.5. Each strain was added so as to attain about 0.5-1×10^5 CFU/mL (final concentration) in terms of Escherichia coli. Each peptide was prepared and added to a microplate or test tubes so as to attain a final concentration of […], and the bacterial suspension was added thereto. […] The plate was incubated at 37° C. for 3 hours, and the amount of ATP in the culture media was measured. Relative values were calculated by comparison with the negative control, and these values were regarded as the viability.
# [2] = test system: Pseudomonas aeruginosa (P. aeruginosa ATCC27853); test: ATP assay (BacTiter-Glo) viability, Table 2; assay type: cell-based; conditions: ATCC27853, 3 h, read-out: Viability (%) P. aeruginosa
# Description: as §1, §2, §3
# [3] = test system: Salmonella enteritidis IID 604
# [4] = test system: Enterobacter cloacae JCM 1232; assay type: cell-based
# Description: Bacteria (Escherichia coli ATCC 25922, Pseudomonas aeruginosa ATCC 27853, Staphylococcus aureus ATCC29213, Klebsiella pneumoniae JCM 1662, Enterobacter cloacae JCM 1232, Enterobacter aerogenes JCM 1235 and Staphylococcus epidermidis JCM 2414) were inoculated to Mueller-Hinton broth: MHB or LB medium, and cultured at a temperature and period suited for each strain. From the thus obtained colonies, each strain was inoculated to a fresh liquid medium and cultured for 16 to 20 hours. Then an aliquot having a volume (10 to 50 appropriate to each strain was inoculated to a fresh liquid medium and cultured for 4 to 6 hours, followed by the measurement of the absorbance at 600 nm. After comparing the turbidity with McFarland #0.5, the resultant was diluted with a medium. Each strain was added to about 10^5 CFU/mL (final concentration). Each of the peptide solutions to be tested was diluted with MHB to obtain a solution of 128 μg/mL. […] As controls, tobramycin (TOB: aminoglucoside antibiotic), oxacillin (OX:β-lactam antibiotic), meropenem (MEPM: carbapenem antibiotic) and ciprofloxacin (new quinolone antibiotic) were used. […] To a 96-well microtiter plate, 0.1 mL of the inoculation solution and 0.1 mL of the peptide- or positive control-containing medium having the respective concentration were added, and cultured at 37° C. for 16 to 24 hours (or a time period suited for the growth of the respective strain). The well not containing the sample was used as a negative control. After the culturing, the growth was visually observed, and the minimum concentration at which the growth was inhibited was defined as the minimum growth inhibition concentration (MIC). The medium used in this test for bacteria was Mueller-Hinton broth. Independent experiments were carried out twice or more for each strain.
# [5] = test system: Rhizopus oryzae NBRC 31005
# [6] = test system: Fusobacterium nucleatum JCM 11025
# [7] = test system: Cryptococcus neoformans IFM 46660
# [8] = test system: Salmonella typhimurium JCM1652
# [9] = test system: Trichophyton rubrum NBRC9185
# [10] = test system: Actinobacillus actinomycetemcomitans JCM2434
# [11] = test system: Aspergillus niger NBRC 9455
# [12] = Table 4, two tests, first/second value where not identical
Compound,viability at 1 µg/mL [1] [%],viability at 1 µg/mL [2] [%],"MIC Salmonella Enteritidis [3, 12]","MIC Enterobacter cloacae [4, 12]",MIC Rhizopus oryzae ([5]; NBRC 31005) [µg/mL],MIC Fusobacterium nucleatum ([6]; JCM 11025) [µg/mL],MIC Cryptococcus neoformans ([7]; IFM 46660) [µg/mL],"MIC Salmonella Typhimurium [8, 12]",MIC Trichophyton rubrum ([9]; NBRC9185) [µg/mL],MIC Actinobacillus actinomycetemcomitans [10] [µg/mL],"MIC Aspergillus niger [11, 12]",MIC Salmonella Enteritidis ([3]; IID 604) [µg/mL],"MIC Rhizopus oryzae [5, 12]",MIC Salmonella Typhimurium ([8]; JCM1652) [µg/mL],"MIC Trichophyton rubrum [9, 12]",MIC Aspergillus niger ([11]; NBRC 9455) [µg/mL],MIC Enterobacter cloacae ([4]; JCM 1232) [µg/mL],"MIC Fusobacterium nucleatum [6, 12]","MIC Cryptococcus neoformans [7, 12]"
"NC[C@H]1O[C@H](O[C@H]2[C@H](O)[C@@H](O[C@H]3O[C@H](CO)[C@@H](O)[C@H](N)[C@H]3O)[C@H](N)C[C@@H]2N)[C@H](N)C[C@@H]1O [tobramycin, reference compound]",3.6,1.8,,,,,,,,,,,,,,,,,
GRLKRMGERLKRKIQKWIRW-NH2 [SRP-15],,,8/16,16/32,16,4,2,8/4,64,32,8/16,,,,,,,,
GRLKRMGKRLKRKIQKWARW-NH2 [SRP-14],,,,32/128,8,4,1,4/8,32,64,4/8,4,,,,,,,
IFLHRLKRMRKRLKRKLRLW-OH [SRP-7],,,,16/128,,4,2,,,128,8/16,4,8/16,4,64/32,,,,
KLIFLHRLKRELRKRLKRKLR-NH2 [SRP-13],,,,32/64,8,4,2,,,128,,4,,4,128/64,16,,,
KLIFLRELRRLRKRLKRKLR-NH2 [SRP-16],,,,,,128,2,,,128,8/16,4,8/16,8,64/32,,64,,
"KNLRRIIRKIIHIIKKYG-NH2 [Ovispirin-1, reference compound]",,,,32/64,> 128,,,,64,128,,16,,16,,32,,2/4,2/4
LIFLHRLKRMRKRLKRKLRL-NH2 [SRP-12],,,,128< mg/mL,8,,1,,,,8/16,,,,,,,,
RLKRMRKRLKRKLRLW-NH2 [SRP-17],,,,128< mg/mL,8,> 128,2,,,> 128,8/16,8,,16,64/32,,,,
RLKRMRKRLKRKLRLWHRKRYK-NH2 [SRP-8],,,,128< mg/mL,8,> 128,,,128,> 128,16/32,64,,64,,,,,1/2
